Experimental data taken from patent publication US7390830B1, “Remedies or prophylactics for diseases in association with chemokines” (Teijin Limited, priority 1999, dated 2008).

What was measured:
[1] = target: T1, human MCP-1 binding to THP-1 cells (Homo sapiens, UniProt P41597); test: Inhibitory activity against binding of [125I]-labeled human MCP-1 to THP-1 cells (method 1); settings: concentration of 10 μM
T1 construct: endogenous in cells; host or cells: THP-1 (whole cells)
T1 sequence (P41597 1-360 isoform P41597-2): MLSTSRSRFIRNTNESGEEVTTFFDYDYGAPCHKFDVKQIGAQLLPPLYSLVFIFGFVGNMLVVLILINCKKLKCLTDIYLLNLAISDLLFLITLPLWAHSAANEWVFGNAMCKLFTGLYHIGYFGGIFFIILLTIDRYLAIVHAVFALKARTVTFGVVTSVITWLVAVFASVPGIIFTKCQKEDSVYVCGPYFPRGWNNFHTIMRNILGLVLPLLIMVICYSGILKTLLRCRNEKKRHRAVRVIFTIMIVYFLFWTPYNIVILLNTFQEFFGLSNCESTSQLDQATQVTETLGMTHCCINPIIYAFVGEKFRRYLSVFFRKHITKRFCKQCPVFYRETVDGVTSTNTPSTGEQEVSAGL
Source text: Two kinds of DNA synthetic primers (5′-[…]-3′ (SEQ ID NO:1) and 5′-[…]-3′) (SEQ ID NO:2) having restriction enzyme recognition sites applied on the basis of the known human MCP-1 gene sequence (see, for example, Yoshimura, T. et al. FEBS Letters 1989, 244, 487-493) were used to amplify a cDNA derived from human vascular endothelial cells (purchased from Kurabow) according to a PCR method. The amplified fragment was cleaved with restriction enzymes (PstI and XbaI) and then ligated into a transfer vector pVL1393 (Invitrogen Co.). The resulting vector was co-transfected with an infectious baculovirus into Sf-9 insect cells. […]
(§1) After completing the reaction, the reaction solution was filtered through a filter, and the filter was washed with 200 μL of cold PBS twice (the reaction solution was filtered after adding 200 μL of the cold PBS). The filter was air-dried and 25% L of liquid scintillator was then added into each well to count the radioactivity retained by the cells on the filter using TopCount (Packard Instrument Co.).
(§2) The count when 100 ng of the above human MCP-1 expressed with baculovirus (unlabeled) instead of the test compound was added was subtracted as nonspecific adsorption, and the count when the test compound was not added was taken as 100%. Thereby, the inhibitory activity of the test compound against binding of the human MCP-1 to THP-1 cells was calculated. […]

[2] = target: T2, human MIP-1 α binding to THP-1 cells (Homo sapiens, UniProt P32246); test: Inhibitory activity against binding of MIP-1 α to THP-1 cells; settings: concentration of 2 μM
T2 construct: endogenous in cells; host or cells: THP-1 (whole cells)
T2 sequence (P32246 1-355): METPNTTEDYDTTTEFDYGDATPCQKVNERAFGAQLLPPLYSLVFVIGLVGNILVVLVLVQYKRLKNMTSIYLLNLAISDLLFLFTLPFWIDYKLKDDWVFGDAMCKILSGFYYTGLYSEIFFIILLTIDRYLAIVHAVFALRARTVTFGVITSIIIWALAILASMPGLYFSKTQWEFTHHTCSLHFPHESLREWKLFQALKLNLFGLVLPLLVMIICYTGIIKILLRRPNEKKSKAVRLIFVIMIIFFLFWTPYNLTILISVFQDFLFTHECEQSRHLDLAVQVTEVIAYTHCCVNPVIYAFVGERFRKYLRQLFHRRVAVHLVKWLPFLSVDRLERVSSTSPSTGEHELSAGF
Procedure: THP-1 cells which are human monocytic leukemia cell line were suspended in an assay buffer [prepared by adding 0.1% of BSA and 25 mM of HEPES to RPMI-1640 (Gibco-BRL Co.) and adjusting the pH to 7.4] so as to provide 1×10^7 cells/mL to thereby afford a cell suspension. A solution obtained by diluting the test compound with the assay buffer was used as a test compound solution. A solution prepared by diluting an iodine-labeled human MIP-1 α (DuPont NEN Co.) with the assay buffer so as to provided 250 nCi/mL was used as a labeled ligand solution. […]
as §1, with “air-dried,” for “air-dried”, “25 μL” for “25% L”
as §2, with “an unlabeled” for “the above”, “MIP-1 α (Peprotech Co.)” for “MCP-1 expressed with baculovirus (unlabeled)”, “MIP-1 α” for “MCP-1”

[3] = test system: collagen-induced arthritis; test: Collagen-induced arthritis in rats; format: in vivo, Lewis female rats; settings: 300 mg/kg orally every day for 3 weeks, 5, 7, 9, 12 and 14 days after boosting
[4] = test system: glomerulonephritis induced by anti-glomerular basement membrane serum; test: Masugi's nephritis model in WKY rats; format: in vivo; settings: for inhibition of the concentration of urinary proteins / decrease of creatinine concentration in blood: vs control; for decrease of creatinine concentration in blood: 15th day after antiserum
Procedure: Rabbits were immunized with a trypsin fraction of rat kidney cortex to provide an anti-glomerular basement membrane serum which was intravenously injected to 4-weeks-old female WKY rats (Charles River) in a dose of 2.5 mL/kg body weight to induce glomerulonephritis. After injection of the antiserum, urine of each animal was collected for 24 hours with metabolic cages for rats (Clea Japan, Inc.) on the 1st, 4th, 7th, 10th and 14th days after the injection. The amount of the urine was measured by urine weight and the protein content in the urine was measured by using a kit for assaying proteins in urine and cerebrospinal fluid (Tonein TP-II, Otsuka Pharmaceutical Co., Ltd.) to determine the amount of proteins excreted in urine per day. Serum of the animals subjected to the experiments was collected on the 15th day after injecting the antiserum, and creatinine concentration in blood was measured with a creatinine assay kit (Autosera®), Daiichi Pure Chemicals Co., Ltd.) using a Hitach±7070 model autoanalyzer. The test compound was daily orally administered in a dose of 100 mg/kg body weight twice a day from the date of injecting the anti-glomerular basement membrane serum (about 10:00 a.m. and about 6:00 p.m. in Experiment 1 and about 10:00 a.m. and about 5:00 p.m. in Experiment 2). In the control group, only the solution (a 0.5% aqueous solution of sodium carboxymethylcellulose) was orally administered. The administration volume was 10 mL/kg body weight, and the number of animals (N) was 10.

[5] = test system: chronic relapsing experimental allergic encephalomyelitis; test: Chronic relapsing experimental allergic encephalomyelitis in mice; format: in vivo, SJL/J×PL/J F1 mice; settings: for Onset Date, First Attack: SJL/J×PL/J F1 mice; for Onset Date, First Attack / Duration of Clinical Sign, First Attack / Onset Date, Second Attack (Relapse): to 41 days after injection of the emulsion; for Maximal Clinical Score, First Attack / Maximal Clinical Score, Second Attack (Relapse): score 0-5, to 41 days after injection of the emulsion
[6] = test system: collagen-induced arthritis; test: Collagen-induced arthritis in mice; format: in vivo, DBA/1 mice
[7] = 7th day after antiserum, 100 mg/kg orally twice a day
[8] = 10th day after antiserum, 100 mg/kg orally twice a day
[9] = 14th day after antiserum, 100 mg/kg orally twice a day
[10] = 300 mg/kg body weight oral, to 21 days after injection of the emulsion
[11] = 300 mg/kg body weight orally, vs control
[12] = 100 mg/kg body weight orally, vs control

**Q.** For `O=C(CNC(=O)c1cccc(C(F)(F)F)c1)NCC1CCN(Cc2cccc(OC(F)(F)F)c2)CC1` [Compd. No. 927, 1-[3-(trifluoromethoxy)benzyl]-4-[(N-(3-(trifluoromethyl)benzoyl)glycyl)aminomethyl]piperidine], which inhibition at 10 µM [1] is on record?
**A.** 20 to 50%

**Q.** For `CCOc1cccc(C(=O)N[C@H](Cc2ccccc2)C(=O)NCC2CCN(Cc3ccc(Cl)cc3)CC2)c1` [Compd. No. 2091, 1-(4-chlorobenzyl)-4-[[N-(3-ethoxybenzoyl)-D-phenylalanyl]aminomethyl]piperidine], which inhibition at 2 µM [2] is on record?
**A.** 50 to 80%

**Q.** How did the “joint swelling (hindlimb footpad volume)” value [3] turn out when `Nc1cc(F)c(F)cc1C(=O)NCC(=O)NCC1CCN(Cc2ccc(Cl)cc2)CC1` [compound 1245] was run?
**A.** significantly inhibited joint swelling

**Q.** And the “inhibition of the concentration of urinary proteins” value (shortened to “inhibition … of urinary proteins”) ([4]; 4th day after antiserum, 100 mg/kg orally twice a day)?
**A.** 74%

**Q.** What about the “inhibition … of urinary proteins” value [4, 7] of the same compound?
**A.** 85%

**Q.** What about the “inhibition … of urinary proteins” value [4, 8] of the same compound?
**A.** 81%

**Q.** What about the “inhibition … of urinary proteins” value [4, 9] of the same compound?
**A.** 82%

**Q.** And the “decrease of creatinine concentration in blood” value ([4]; 100 mg/kg orally twice a day)?
**A.** 10%

**Q.** What about the “Serum Creatinine Concentration on the 15th Day” value ([4]; WKY rats, Experiment 2, 100 mg/kg body weight orally twice a day, 15th day after injecting anti-glomerular basement membrane serum, mean ± spread) of the same compound?
**A.** 0.48 ± 0.04 mg/dL

**Q.** And the “Maximal Clinical Score” value ([5]; 300 mg/kg body weight oral, score 0-5, to 21 days after injection of the emulsion)?
**A.** 2.5 ± 1.5

**Q.** What about the “Duration of Clinical Sign” value [5, 10] of the same compound?
**A.** 5.4 ± 2.4

**Q.** What about the “Incidence (Number of Onset Animals/Number of Immunized Animals)” value [5, 10] of the same compound?
**A.** 17/19

**Q.** And the “onset date” value [5, 10]?
**A.** 13.2 ± 2.4

**Q.** What about the onset date [5, 11] of the same compound?
**A.** delay in onset date (p<0.05)

**Q.** And the “symptoms (clinical scores)” value [5, 11]?
**A.** tendency to inhibit symptoms (no significant difference)

**Q.** Which “chondrolysis of articular cartilages” value ([6]; knee joint, oral 12 weeks) does the source give for `Nc1ccc(C(F)(F)F)cc1C(=O)NCC(=O)N[C@@H]1CCN(Cc2ccc(Cl)cc2)C1` [Compd. No. 1583] here?
**A.** significantly inhibited

**Q.** And the “osteolysis of subchondral bone” value ([6]; knee joint, oral 12 weeks)?
**A.** significantly inhibited

**Q.** And the synovial hyperplasia ([6]; knee joint, oral 12 weeks)?
**A.** significantly inhibited

**Q.** What about the arthritis scores ([6]; orally once a day for 12 weeks, vs control group) of the same compound?
**A.** significantly inhibited arthritis scores

**Q.** And the “inhibition … of urinary proteins” value [4, 7]?
**A.** 26%

**Q.** And the “inhibition … of urinary proteins” value [4, 8]?
**A.** 51%

**Q.** What about the “inhibition … of urinary proteins” value [4, 9] of the same compound?
**A.** 54%

**Q.** And the “decrease of creatinine concentration in blood” value ([4]; 100 mg/kg orally twice a day)?
**A.** 20%

**Q.** And the “Serum Creatinine Concentration” value ([4]; on the 15th Day, 100 mg/kg orally twice a day)?
**A.** 0.39 ± 0.03 mg/dL

**Q.** And the “Onset Date, First Attack” value ([5]; 30 mg/kg body weight oral)?
**A.** 12.3 ± 1.9

**Q.** What about the “Maximal Clinical Score, First Attack” value ([5]; 30 mg/kg body weight oral) of the same compound?
**A.** 3.5 ± 0.9

**Q.** What about the “Maximal Clinical Score, Second Attack (Relapse)” value ([5]; 30 mg/kg body weight oral) of the same compound?
**A.** 3.7 ± 0.6

**Q.** And the “Duration of Clinical Sign, First Attack” value ([5]; 30 mg/kg body weight oral)?
**A.** 9.8 ± 3.3

**Q.** What about the “Onset Date, Second Attack (Relapse)” value ([5]; 30 mg/kg body weight oral) of the same compound?
**A.** 26.3 ± 3.4

**Q.** And the “onset date, symptoms and onset period at the first attack” value ([5]; 30 mg/kg body weight orally, vs control)?
**A.** distinct effects on the items were not found

**Q.** What about the “Onset Date, First Attack” value ([5]; 100 mg/kg body weight oral) of the same compound?
**A.** 13.6 ± 2.0

**Q.** And the “Maximal Clinical Score, First Attack” value ([5]; 100 mg/kg body weight oral)?
**A.** 2.4 ± 1.3

**Q.** What about the “Maximal Clinical Score, Second Attack (Relapse)” value ([5]; 100 mg/kg body weight oral) of the same compound?
**A.** 3.0 ± 0.9

**Q.** What about the “Duration of Clinical Sign, First Attack” value ([5]; 100 mg/kg body weight oral) of the same compound?
**A.** 5.7 ± 3.8

**Q.** What about the “Onset Date, Second Attack (Relapse)” value ([5]; 100 mg/kg body weight oral) of the same compound?
**A.** 28.5 ± 4.7

**Q.** What about the “onset date at the first attack” value [5, 12] of the same compound?
**A.** tendency to delay the onset date (no significant difference)

**Q.** What about the “onset period at the first attack” value [5, 12] of the same compound?
**A.** shortening of onset period (p<0.05)

**Q.** And the “symptoms (clinical scores) at the first attack” value [5, 12]?
**A.** symptom inhibition (p<0.05)
